Holding throughout (format): cell-based
One test has as its system Micrococcus aloeverae. The experiment in a line: Suppression of metabolism of 14-methylhexadecanoic acid on cotton fabric. On the procedure:
A methanol solution in which 14-methylhexadecanoic acid (SIGMA-ALDRICH) was dissolved was added dropwise to 3 cm×3 cm pieces of sterilized plain-weave cotton fabric to make it adhered to the fabric. The adhesion amount of 14-methylhexadecanoic acid was set to 10 μg per piece of the plain-weave cotton fabric (100 μg/fabric g).
Further, a methanol solution in which each metabolism controlling agent was dissolved was prepared and added dropwise to the fabric to which 14-methylhexadecanoic acid adhered, and it was thereafter dried for an hour. This fabric was placed in a sterilized screw tube bottle No. 3 (Maruemu Corporation) and 100 μl of the bacterial suspension was inoculated thereto, and culture was carried out under 37° C.; conditions for 21 hours.
3 ml of methanol was added to the screw tube bottle after culture, and extraction was carried out under ultrasonic irradiation for 30 minutes (20° C.). The extraction liquid was mixed with a (trimethylsilyl)diazomethane hexane solution (FUJIFILM Wako Pure Chemical Corporation) at 9:1 (volume ratio) and left overnight under room temperature and dark place conditions. After that, 14-methylhexadecanoic acid remaining on the fabric was quantified by GC. The quantification conditions for GC are as follows. • GC: Agilent 7890A • GC column: Agilent DB-1 30 m×250 μm×0.25 μm • Temperature rise condition: 50° C. (held for 3 minutes)-(10° C./min)-300° C. (held for 5 minutes) • Sample injection volume: 1 μl • Split ratio: 1:12 • Detector: FID
The residual amount of 14-methylhexadecanoic acid after culture on the fabric to which the metabolism controlling agent was added was quantified, and the ratio of the residual amount to that of 14-methylhexadecanoic acid in the case of adding no metabolism controlling agent (control) was calculated as a metabolism suppression rate (%). The higher a numerical value thereof is, the more the metabolism is suppressed. Note that the metabolism suppression rate was determined by the following formula:
Metabolism suppression rate(%)=[1−(100−A)/(100−B)]×100 • A: residual amount of 14-methylhexadecanoic acid of example or comparative example (μg/fabric g) • B: residual amount of 14-methylhexadecanoic acid of control (μg/fabric g)
The metabolism of 14-methylhexadecanoic acid by bacteria of the genus Micrococcus was tested in the same manner as in example 1.
In this example, Micrococcus aloeverae (strain isolated from clothing) was used as a microorganism.
Further, in this example, a bacterial suspension of 10^7 (CFU/ml) prepared by using an SCD liquid medium (NIHON PHARMACEUTICAL CO., LTD.) diluted to 1/10 with ion exchange water was used as a bacterial suspension.
(§1) Note that, in this example, C12OH (1-dodecanol) was used as the metabolism controlling agent.

Test [1] deals with Moraxella osloensis. The experiment in a line: Examination example: measurement of viable bacterial count. The conditions noted are these: single agent 100 μg/fabric g. On the procedure: (§2) After culture on fabric prepared in the same manner as in the above (1), 9 mL of an LP diluent (manufactured by NIHON PHARMACEUTICAL CO., LTD.) was added, and the extraction of the bacteria was carried out under ultrasound for 10 minutes. The extraction liquid was poured and mixed to an SCD-LP agar medium (NIHON PHARMACEUTICAL CO., LTD.), and culture was thereafter carried out at 37° C.; for a day. The number of colonies obtained on each piece of the fabric was counted, and a common logarithm value thereof was measured as the viable bacterial count. […] In addition, the […], the more the viable bacterial count of the microorganism is maintained.

In test [2] the test system is Rhodotorula mucilaginosa. The experiment in a line: Measurement of viable count on fabric (PDA agar). On the procedure: as §2
The metabolism of 14-methylhexadecanoic acid by yeast of the genus Rhodotorula was tested in the same manner as in example 1.
In this example, Rhodotorula mucilaginosa (strain isolated from clothing) was used as a microorganism.
Further, in this example, the bacteria were precultured under conditions of a PDA agar medium (Difco), 30° C.; and 48 hours.
Further, in this example, a bacterial suspension of 10^7 (CFU/ml) prepared by using a PDB liquid medium (Difco) diluted to 1/10 with ion exchange water was used as a bacterial suspension.
Further, in this example, after the extraction of the bacteria in (3) of example 1, they were poured and mixed to a PDA agar medium (Difco) and thereafter cultured at 30° C.; for 2 days, and the viable bacterial count was measured.
as §1

Test [3] deals with Moraxella osloensis. The experiment in a line: Examination example: suppression of metabolite 4-methyl-3-hexenoic acid, components (a) and (b)/(b′). Conditions: single agent 100 μg/fabric g. On the procedure:
After culture on fabric prepared in the same manner as in the above (1), 3 ml of methanol was added, and extraction was carried out under ultrasonic irradiation for 30 minutes (20° C.). The extraction liquid was mixed with (a 1000 ppm methanol solution of) an ADAM reagent of Funakoshi Co., Ltd. at 1:1 (volume ratio) and left overnight under room temperature and dark place conditions. After that, 4-methyl-3-hexenoic acid as a metabolite from 14-methylhexadecanoic acid was quantified by HPLC. The quantification conditions are as follows.
Eluent: acetonitrile 61% (v/v), water 39% (v/v) Column temperature: 40° C. Sample injection volume: 10 μL Flow rate: 1.0 mL/min
The production amount of 4-methyl-3-hexenoic acid after culture on the fabric to which the metabolism controlling agent was added was quantified, and the ratio of the production amount to that of 4-methyl-3-hexenoic acid in the case of adding no metabolism controlling agent (control) was calculated as a metabolite suppression rate (%). The higher a numerical value thereof is, the more the metabolism is suppressed. Note that the metabolite suppression rate was determined by the following formula. In references 1-1, 2-1, 3-1 and 4-1, which are controls, the metabolite suppression rate is 0%.
Metabolite suppression rate(%)=100×[(D−C)/D] • C: production amount of metabolite of reference or examination example (μg/fabric g) • D: production amount of metabolite of control (μg/fabric g)

In test [4] the test system is Rhodotorula mucilaginosa. Description: Suppression of metabolite 4-methylhexanoic acid from 14-methylhexadecanoic acid. On the procedure:
The extraction liquid was mixed with (a 1000 ppm methanol solution of) an ADAM reagent of Funakoshi Co., Ltd. at 1:1 (volume ratio) and left overnight under room temperature and dark place conditions. […] The quantification conditions are as follows. […] The higher a numerical value thereof is, the more the metabolism is suppressed. Note that the metabolite suppression rate was determined by the following formula: […] In this example, Rhodotorula mucilaginosa (strain isolated from clothing) was used as a microorganism. Further, in this example, the bacteria were precultured under conditions of a PDA agar medium (Difco), 30° C.; and 48 hours. Further, in this example, a bacterial suspension of 10^7 (CFU/ml) prepared by using a PDB liquid medium (Difco) diluted to 1/10 with ion exchange water was used as a bacterial suspension.

Values joined by “and” are separate entries in the source; they are usually repeats but may differ in a detail not shown here. Equal values may be shown once.

Here are results for one molecule from US20220408724A1, “METHOD FOR CONTROLLING METABOLISM OF BRANCHED FATTY ACID” (KAO CORPORATION, priority 2019, published 2022).

`CCCCCCCCCCCCO` [Example C12OH, 1-dodecanol]: the “Metabolism suppression rate (%)” value in the test on Micrococcus aloeverae (agent 100 μg/fabric g) is 16.7%; with Micrococcus aloeverae (agent 250 μg/fabric g), 73% and 55.0%; in the test on Micrococcus aloeverae (agent 500 μg/fabric g), 85.8%; in the test with Micrococcus aloeverae (agent 1000 μg/fabric g), 86.9%. Besides, the “Viable bacterial count (Log (cfu/fabric cm^2))” value in the test with Moraxella osloensis [1] is reported as 6.2 Log (cfu/fabric cm^2). Further, the results for the “Bacterial count (Log (cfu/fabric cm^2))” value with Rhodotorula mucilaginosa [2] (agent 250 μg/fabric g), in the test with Rhodotorula mucilaginosa [2] (agent 500 μg/fabric g) and in the test on Rhodotorula mucilaginosa [2] (agent 1000 μg/fabric g) were 4.9 Log (cfu/fabric cm^2), 4.7 Log (cfu/fabric cm^2) and 4.8 Log (cfu/fabric cm^2), respectively. Moreover, the “Product of metabolism of branched fatty acid: Metabolite suppression rate (%)” value in the test on Moraxella osloensis [3] is reported as 20%. Moreover, the “Product of metabolism of branched fatty acid: Production amount (μg/fabric g)” value in the test on Moraxella osloensis [3] is 3.5 μg/fabric g. Also, the “Metabolite suppression rate (%)” value with Rhodotorula mucilaginosa [4] (agent 250 μg/fabric g) is 62% and 72.50%; in the test with Rhodotorula mucilaginosa [4] (agent 500 μg/fabric g), 65.80%; with Rhodotorula mucilaginosa [4] (agent 1000 μg/fabric g) it was 82.20%.
